This note sets out measurements from ChEMBL document CHEMBL1201862, “PubChem BioAssay data set” (2004).

Among the test systems are COLO 205; SF-268; MDA-MB-231; CAKI-1; Hs-578T; MCF7; SF-295; SNB-19; MOLT-4; SK-MEL-5; A549; HCT-116; SW-620; EKVX; HCT-15; SNB-75; BT-549; SK-MEL-28; Malme-3M; OVCAR-3.
What all share (experiment): NCI-60 cell line screen, 48 h

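Values below derive from 48-hour exposures of cells grown in 96-well plates, with endpoints linearly interpolated between the two concentrations bracketing the appropriate inhibition level. Here, GI50 denotes the concentration required for 50% inhibition of growth.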 The source made the active and inactive calls. Rule as the data show it: active = GI50 up to about 1.1 µM and inactive = higher.

Regarding `CC(=O)Nc1ccc(-c2nc3ccccc3s2)cc1Cl`, the GI50 was > 100 µM (inactive) in the test on COLO 205; 56.8 µM (inactive) in the test with SF-268; 67.8 µM (inactive) with MDA-MB-231; 56.5 µM (inactive) in the test on CAKI-1; 17.9 µM (inactive) with Hs-578T; < 0.0399 µM (active) in the test with MCF7. Moreover, the GI50 is 41.9 µM (inactive) in the test with SF-295; 67.5 µM (inactive) in the test with SNB-19; > 83.4 µM (inactive) with MOLT-4; > 100 µM (inactive) in the test on SK-MEL-5; 99.8 µM (inactive) in the test with A549; 58.7 µM (inactive) in the test with HCT-116. The GI50 with SW-620 was > 100 µM (inactive); in the test with EKVX it was 5.6 µM (inactive); in the test on HCT-15 it was 41.4 µM; with SNB-75 it was 36.7 µM (inactive); in the test on BT-549 it was > 75.9 µM (inactive); in the test on SK-MEL-28 it was > 100 µM (inactive). Further, the GI50 in the test on Malme-3M is > 100 µM (inactive).

Turning to `CC1=CC(C)(C)Nc2ccc(CSc3ccccc3)cc21`, the GI50 was 22 µM (inactive) in the test on COLO 205; 35.3 µM (inactive) with SF-268; 32.9 µM (inactive) in the test with MDA-MB-231; 36.1 µM (inactive) with CAKI-1; 38.3 µM (inactive) in the test with Hs-578T; 22 µM (inactive) in the test with MCF7. The GI50 was 20 µM (inactive) in the test with SF-295; 18.7 µM (inactive) in the test on OVCAR-3; 37.7 µM (inactive) in the test on SNB-19; 17.1 µM (inactive) in the test on SK-MEL-5; 21.1 µM (inactive) in the test with A549; 26.4 µM (inactive) in the test with HCT-116. Moreover, the GI50 with SW-620 was 23 µM (inactive); with EKVX, 22.1 µM (inactive); with HCT-15, 30.9 µM; with SNB-75 it was 24.7 µM (inactive); with BT-549, 59.2 µM (inactive); in the test with SK-MEL-28, 37.8 µM (inactive). Also, the GI50 in the test on Malme-3M was 17.9 µM (inactive).

As for `COc1ccc2c(c1)N=C1CSC(c3ccccc3Cl)N1C2` (stereo unspecified), the GI50 in the test with COLO 205 was 14.9 µM (inactive); with SF-268 it was 16.4 µM (inactive); in the test with MDA-MB-231 it was 27.4 µM (inactive); in the test with CAKI-1, 3.31 µM (inactive); with Hs-578T, 45.2 µM (inactive); in the test with MCF7 it was 12.2 µM (inactive). The GI50 was 13.3 µM (inactive) in the test with SF-295; 19 µM (inactive) in the test on SNB-19; 0.659 µM (active) in the test with MOLT-4; 17.1 µM (inactive) in the test with SK-MEL-5; 10.4 µM (inactive) in the test on A549; 3.92 µM (inactive) in the test on HCT-116. The GI50 is 14.8 µM (inactive) with SW-620; 7.98 µM (inactive) in the test with EKVX; 9.68 µM in the test with HCT-15; 9.91 µM (inactive) with SNB-75; 43.2 µM (inactive) with BT-549; 17.6 µM (inactive) in the test on SK-MEL-28. In the test on Malme-3M, the GI50 is 23.4 µM (inactive).

For the compound `O=C1CC(c2ccccc2)[S+]([O-])c2ccccc2N1` (stereo unspecified), the GI50 in the test with COLO 205, in the test with SF-268, in the test with MDA-MB-231, in the test on CAKI-1, in the test on Hs-578T and in the test with MCF7 was > 100 µM (inactive) each time. Moreover, the GI50 is > 10 µM (inactive) in the test on SF-295; > 100 µM (inactive) in the test with OVCAR-3; > 100 µM (inactive) in the test with SNB-19; > 100 µM (inactive) in the test on MOLT-4; > 100 µM (inactive) with SK-MEL-5; > 100 µM (inactive) in the test on A549. In addition, the GI50 is > 100 µM (inactive) in the test with HCT-116; > 100 µM (inactive) in the test with EKVX; more than 100 µM with HCT-15; > 100 µM (inactive) with SNB-75; > 100 µM (inactive) in the test with BT-549; > 100 µM (inactive) with SK-MEL-28. Also, the GI50 in the test with Malme-3M was > 100 µM (inactive).

Regarding `CC(C)(C)OC(=O)NCCNC(=O)CN(CC(=O)O)C1CCCCC1N(CC(=O)O)CC(=O)O` (stereo unspecified), the GI50 in the test on COLO 205, in the test on SF-268, with MDA-MB-231, in the test on CAKI-1, with Hs-578T and with MCF7 was > 100 µM (inactive) throughout. In addition, the GI50 in the test with SF-295, in the test on OVCAR-3, with SNB-19, in the test on MOLT-4, in the test with SK-MEL-5 and in the test on A549 was > 100 µM (inactive) in each case. The GI50 in the test on HCT-116 was > 100 µM (inactive); in the test with SW-620, > 100 µM (inactive); in the test with HCT-15, more than 100 µM; in the test on SNB-75, > 100 µM (inactive); in the test on BT-549 it was > 100 µM (inactive); with SK-MEL-28 it was > 100 µM (inactive). Besides, the GI50 in the test on Malme-3M is > 100 µM (inactive).

As to `CCCCCCCCCCCCCCCC(=O)ON1C(=S)NC(C)(c2ccccc2)C1=S` (stereo unspecified), the GI50 in the test with COLO 205 is > 100 µM (inactive); with SF-268, 73.6 µM (inactive); in the test with MDA-MB-231, > 100 µM (inactive); with CAKI-1, > 100 µM (inactive); with Hs-578T, > 100 µM (inactive); in the test with MCF7 it was > 100 µM (inactive). Besides, the GI50 is 2.11 µM (inactive) in the test with SF-295; > 100 µM (inactive) in the test on OVCAR-3; > 100 µM (inactive) with SNB-19; 33.5 µM (inactive) in the test with MOLT-4; > 100 µM (inactive) in the test with SK-MEL-5; > 100 µM (inactive) in the test on A549. Further, the GI50 in the test with HCT-116 is > 100 µM (inactive); with EKVX, > 100 µM (inactive); with HCT-15, 51.4 µM; with SNB-75 it was > 100 µM (inactive); in the test with BT-549 it was > 100 µM (inactive); in the test with Malme-3M, > 100 µM (inactive).

`COc1cc(C=C(c2ccc(N(C)C)cc2)c2ccc(N(C)C)cc2)c2ccccc2c1OC`: the GI50 was 55.7 µM (inactive) with COLO 205; > 100 µM (inactive) with SF-268; > 100 µM (inactive) in the test on MDA-MB-231; > 100 µM (inactive) in the test with CAKI-1; 43.2 µM (inactive) with Hs-578T; 26.2 µM (inactive) in the test on MCF7. The GI50 with SF-295 was 30.3 µM (inactive); in the test on OVCAR-3, 27.2 µM (inactive); in the test on SNB-19, > 100 µM (inactive); in the test on MOLT-4 it was > 100 µM (inactive); in the test on SK-MEL-5, 51.9 µM (inactive); in the test on A549, > 100 µM (inactive). Further, the GI50 is 35.1 µM (inactive) in the test on HCT-116; > 100 µM (inactive) in the test with EKVX; 40.4 µM in the test on HCT-15; 36.3 µM (inactive) with SNB-75; 35.2 µM (inactive) in the test with BT-549; 93.8 µM (inactive) in the test with SK-MEL-28. Further, in the test with Malme-3M, the GI50 is 70.8 µM (inactive).

Turning to `COc1ccc(-n2c(C)nc3ccc(NC4OC(CO)C(O)C(O)C4O)cc3c2=O)cc1` (stereo unspecified), the GI50 with COLO 205, with SF-268, with MDA-MB-231, in the test on CAKI-1, in the test on Hs-578T and in the test with MCF7 was > 100 µM (inactive) throughout. In addition, the GI50 in the test on SF-295, in the test on OVCAR-3, in the test on SNB-19, in the test with MOLT-4, in the test with SK-MEL-5 and in the test with HCT-116 was > 100 µM (inactive) throughout. The GI50 in the test with SW-620 was > 100 µM (inactive); with EKVX, > 100 µM (inactive); in the test on HCT-15 it was more than 100 µM; with SNB-75, > 100 µM (inactive); with BT-549, > 100 µM (inactive); in the test on SK-MEL-28, > 100 µM (inactive). Further, the GI50 with Malme-3M was > 100 µM (inactive).
